What was measured:
[1] = Reducing Power (RP) assay; conditions: molar equivalents of reference compound
Description: The results of the evaluation of the electron ability transfer of the tested compound were expressed as molar equivalents of the reference compound per one mol of the tested compound using the formula: % of control activity=sample absorbance/reference absorbance×100 In the Reducing Power (RP) assay, the tested compounds reduce ferric ions from potassium ferricyanide, forming ferrocyanide, which produces a blue complex. The protocol used is an adaptation of previously reported methodologies. […] The tubes were sealed and incubated for 20 min in a water bath at 50 °C. […] Subsequently, 250 µL of the resulting solutions were mixed with 140 µL of FeCl3 solution (0.1% w/v) and 1000 µL of distilled water, and the absorbance of the resulting solutions was measured at λ = 695 nm.

[2] = Ferrous ions chelation assay (ferrozine)
Protocol: Solutions of the tested compounds or ethylenediaminetetraacetic acid disodium salt (EDTA-Na2), used as a positive control, were thoroughly mixed with 0.5 mL of FeSO4 (0.125 mM) and 0.5 mL of ferrozine (0.315 mM). After a 10-min incubation in the dark at room temperature, the absorbance was measured at λ = 562 nm.

[3] = Total Antioxidant Capacity (TAC) assay; conditions: molar equivalents of reference compound
Protocol: The results of the evaluation of the electron ability transfer of the tested compound were expressed as molar equivalents of the reference compound per one mol of the tested compound using the formula: % of control activity=sample absorbance/reference absorbance×100 The Total Antioxidant Capacity (TAC) assay operates on the principle of reducing molybdenum (VI) to molybdenum (V) by the antioxidants being assessed, resulting in the formation of a blue-green complex. This assay was performed following the methodology detailed in our previous publication, which was based on initial reports from the literature. […] These were then incubated in a water bath at 95 °C for 90 min. After cooling to room temperature, 1 mL of each solution was diluted with 1 mL of water. The absorbance of the solutions was subsequently measured at λ = 695 nm.

[4] = Cell viability (resazurin) on A549; format: cell-based; conditions: human, A549 cells; for IC50 at 24 h: A549, 24 h, read-out: 24 h Exposure IC50 (cytotoxicity); for IC50 at 48 h: A549, 48 h, read-out: 48 h Exposure IC50 (cytotoxicity)
Description: (§1) The ARPE-19 cell line was purchased from CLS Cell Lines Service GmbH (Eppelheim, Germany) and cultured in Dulbecco’s modified Eagle’s medium/F-12 (HAM) 1:1 (Biological Industries, Beit, Israel). The medium was supplemented with 10% fetal bovine serum (FBS) (Thermo Fisher Scientific, Waltham, MA, USA) and 1% penicillin-streptomycin (Biosera, Cholet, France). The cancerous cell line A549 was purchased from ATCC (Manassas, VA, USA) and cultivated in high-glucose Dulbecco’s modified Eagle’s medium (DMEM 4.5 g/L). The normal BJ cell line was also purchased from ATCC (Manassas, VA, USA) and was cultivated in low-glucose Dulbecco’s modified Eagle’s medium (DMEM 1 g/L). The media was supplemented in both cases with 10% FBS. Cells were cultured in T75 flasks and incubated at 37 °C in a humidified incubator with 5% CO2 supplementation. For maintenance, the media was changed every 2–3 days, and when the confluence of the flask reached approximately 85%, the cells were either subcultured or further used in the experiments.
(§2) ARPE-19 cells were seeded at a density of 2 × 10^4 cells/well and 1 × 10^4 cells/well (suspended in 100 µL) in 96-well plates for 24 h and 48 h, respectively. For the BJ cells, the seeding density was 0.5 × 10^4 cells/well and 0.3 × 10^4 cells/well for 24 h and 48 h, respectively, and for the A549 cells, 1.5 × 10^4 cells/well for 24 h and 0.75 × 10^4 cells/well for 48 h. As cells have different sizes and volumes, the different seeding densities were selected to reach a confluency of 80–90% by the end of the experiments. Cells were further exposed to the synthesized compounds for 24/48 h at concentrations ranging from 12.5 to 500 µM. After the incubation period, the exposure media was removed, the cells were washed with PBS, and further incubated with a 200 µM resazurin solution for 3 h as described in our previous report. The conversion of resazurin to the fluorescent resorufin compound by viable cells was measured at λexcitation = 550; λemission = 600, using SpectraMax iD3 (Molecular Devices, San Jose, CA, USA). The experiments were conducted in biological triplicate, each with a minimum of 3 technical replicates. The measured viability was expressed as relative values to the control (cells exposed only to the vehicle–culture medium containing 0.4% DMSO).

[5] = tested on: rat microsomal membrane lipid peroxidation; assay: Lipid peroxidation inhibition assay (LPI), 2-thiobarbituric acid method; format: biochemical; conditions: for IC50: ascorbic acid/Fe^2+ system, 37 °C, 45 min
Protocol: Rat liver microsomes were homogenized in saline, and the resulting homogenates were centrifuged at 9000× g for 20 min at 4 °C to remove cell debris. The supernatant underwent ultracentrifugation at 110,000× g for 40 min at 4 °C. The pelleted microsomal fraction was subsequently washed with saline via another round of ultracentrifugation under identical conditions. Thereafter, the pellet was resuspended in Tris-HCl buffer (pH 7.4) to achieve a concentration equivalent to 0.5 g liver per mL and was stored until further analysis (at −80 °C). For the assay, the microsomal preparation was thermally inactivated by incubation at 90 °C for 90 s, then homogenized again and diluted to a final concentration equivalent to 4 mM fatty acid equivalents. […] All mixtures were incubated at 37 °C under air with continuous shaking. […] This was followed by heating at 90 °C for 20 min and centrifugation at 3000 rpm for 15 min. As a result of the breakdown of unsaturated fatty acids, malondialdehyde reacts with the 2-thiobarbituric acid to produce a pink compound due to the formation of a Schiff base. The extent of lipid peroxidation was measured spectrophotometrically at 535/600 nm, which is proportional to the amount of the chromogen reaction product formed between 2-thiobarbituric acid and malondialdehyde. The determinations were performed in triplicate, and the standard deviation was within ±10% of the mean value.

[6] = Ferric Reducing Antioxidant Potential (FRAP) assay; conditions: molar equivalents of reference compound
Description: The results of the evaluation of the electron ability transfer of the tested compound were expressed as molar equivalents of the reference compound per one mol of the tested compound using the formula: % of control activity=sample absorbance/reference absorbance×100 The Ferric Reducing Antioxidant Potential (FRAP) assay measures the ability of an antioxidant to transfer an electron to Fe^3+, converting it to Fe^2+. […] The solutions were thoroughly mixed in the dark, and their absorbance was measured spectrophotometrically at λ = 593 nm.

[7] = Cell viability (resazurin) on ARPE-19; format: cell-based, human; conditions: human, ARPE-19 cells; for IC50 at 24 h: ARPE-19, 24 h, read-out: 24 h Exposure IC50 (cytotoxicity); for IC50 at 48 h: ARPE-19, 48 h, read-out: 48 h Exposure IC50 (cytotoxicity)
Description: as §1, §2

ARPE-19 cells = assay: Cell viability (resazurin) on ARPE-19; format: cell-based, human; conditions: ARPE-19, up to 50 µM
Description: as §1, §2

SMILES | RP Eq Ascorbic Acid [1] | RP Eq Trolox [1] | % of ferrous ions chelation ([2]; 50 nM) | % of ferrous ions chelation ([2]; 100 nM) | % of ferrous ions chelation ([2]; 150 nM) | % of ferrous ions chelation ([2]; 175 nM) | % of ferrous ions chelation ([2]; 200 nM) | TAC Eq Ascorbic Acid [3] | IC50 at 24 h [4] | IC50 at 48 h [4] | fold more active than Trolox in lipid peroxidation inhibition [5] | IC50 [5] | FRAP Eq Trolox [6] | IC50 at 24 h [7] | IC50 at 48 h [7] | effect on ARPE-19 cell viability (ARPE-19 cells) | viability at 24 h, 12.5 µM ([7]; ARPE-19, 24-h exposure, 12.5 µM, read-out: cell viability (% of control))
C/C=C/C=N/Nc1nc(-c2ccc(O)c(O)c2)cs1.Cl [Compound 5a, 4-(2-(2-((1E,2E)-but-2-en-1-ylidene)hydrazineyl)thiazol-4-yl)benzene-1,2-diol hydrochloride] | 2.55 Eq Ascorbic Acid | 2.12 Eq Trolox | − (less than 5% chelation activity) | − (less than 5% chelation activity) | − (less than 5% chelation activity) | − (less than 5% chelation activity) | − (less than 5% chelation activity) | 2.82 Eq Ascorbic Acid | 147 µM | 109 µM | approximately 7.5 fold | 3.34 µM | 1.49 Eq Trolox | 90.1 µM | 92.7 µM | slight proliferative effect | 
CC1=C(/C=C/C(C)=N/Nc2nc(-c3ccc(O)c(O)c3)cs2)C(C)(C)CCC1.Cl [Compound 5b, 4-(2-(2-((2E,3E)-4-(2,6,6-trimethylcyclohex-1-en-1-yl)but-3-en-2-ylidene) hydrazineyl)thiazol-4-yl)benzene-1,2-diol hydrochloride] | 1.90 Eq Ascorbic Acid | 1.58 Eq Trolox | − (less than 5% chelation activity) | − (less than 5% chelation activity) | − (less than 5% chelation activity) | − (less than 5% chelation activity) | − (less than 5% chelation activity) | 2.56 Eq Ascorbic Acid | 167 µM | 39.6 µM |  | 12.9 µM | 1.39 Eq Trolox | 31.5 µM | 52.1 µM |  | 63.5%

Reference: publication PMC12189671, “Antioxidant Activity and Cytotoxicity Evaluation of New Catechol Hydrazinyl-Thiazole Derivatives as Potential Protectors in Retinal Degenerative Processes” (Antioxidants, 2025)
